The subject of the experiment is Sphincter of Oddi. The settings on record: co-administered with Fe-PSMPs via oral gavage; pancreatic tumor-bearing mice.

Procedure: Female C57BL/6 mice 6-8 weeks of age (Jackson Laboratories) were orthotopically inoculated in pancreas with KPC-Luc cells (1.5×10^4). […] During the biodistribution studies, ^68Ga-PSMPs, Fe-PSMPs or Nano-Calcium were administered in mice via oral gavage. Mice were euthanized 2 hours after oral gavage. The pancreas and other major organs were collected and wet-weighted and the radioactivity in the organs were measured by a gamma counter (Wizard 2 1-Detector, PerkinElmer).

Take `O=[N+]([O-])OCC(CO[N+](=O)[O-])O[N+](=O)[O-]` [nitroglycerin]: the “increase in the accumulation of Fe-PSMPs in the pancreas” value came out at 10 fold.

(Values after US20240261447A1, “COMPOSITIONS AND METHODS FOR TREATING CONDITIONS RELATED TO THE HEPATO[…]” (THE REGENTS OF THE UNIVERSITY OF MICHIGAN, priority 2021, published 2024).)
